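The compound was tested at five concentrations on cells cultured in 96-well plates, with a 48-hour exposure period. At the GI50, growth is halved. Definition used: TGI = concentration required for complete inhibition of growth.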
Tests used:
Assay in all cases: DTP human tumour cell line panel, 48 h
U251 CNS = system: U251 CNS
HS 578T breast = system: HS 578T breast
CCRF-CEM leukemia = system: CCRF-CEM leukemia
IGROV1 ovarian = system: IGROV1 ovarian
UO-31 renal = system: UO-31 renal
SW-620 colon = system: SW-620 colon
HCT-116 colon = system: HCT-116 colon
T-47D breast = system: T-47D breast
DU-145 prostate = system: DU-145 prostate
SN12C renal = system: SN12C renal
RXF 393 renal = system: RXF 393 renal
SNB-75 CNS = system: SNB-75 CNS
SF-268 CNS = system: SF-268 CNS
HT29 colon = system: HT29 colon
SK-MEL-5 melanoma = system: SK-MEL-5 melanoma
CAKI-1 renal = system: CAKI-1 renal
OVCAR-5 ovarian = system: OVCAR-5 ovarian
786-0 renal = system: 786-0 renal
ACHN renal = system: ACHN renal
LOX IMVI melanoma = system: LOX IMVI melanoma
OVCAR-4 ovarian = system: OVCAR-4 ovarian
OVCAR-3 ovarian = system: OVCAR-3 ovarian
KM12 colon = system: KM12 colon
A498 renal = system: A498 renal
HOP-92 NSCLC = system: HOP-92 NSCLC
MOLT-4 leukemia = system: MOLT-4 leukemia
MDA-MB-231 breast = system: MDA-MB-231 breast
PC-3 prostate = system: PC-3 prostate
SF-539 CNS = system: SF-539 CNS
OVCAR-8 ovarian = system: OVCAR-8 ovarian
SNB-19 CNS = system: SNB-19 CNS
BT-549 breast = system: BT-549 breast
TK-10 renal = system: TK-10 renal
HL-60(TB) leukemia = system: HL-60(TB) leukemia
SK-MEL-2 melanoma = system: SK-MEL-2 melanoma
SK-OV-3 ovarian = system: SK-OV-3 ovarian
SK-MEL-28 melanoma = system: SK-MEL-28 melanoma
HOP-62 NSCLC = system: HOP-62 NSCLC
UACC-62 melanoma = system: UACC-62 melanoma
M14 melanoma = system: M14 melanoma
A549 NSCLC = system: A549 NSCLC
NCI-H226 lung = system: NCI-H226 lung
HCT-15 colon = system: HCT-15 colon
SR leukemia = system: SR leukemia
NCI-H522 lung = system: NCI-H522 lung
MALME-3M melanoma = system: MALME-3M melanoma
HCC-2998 colon = system: HCC-2998 colon
COLO 205 colon = system: COLO 205 colon
NCI/ADR-RES ovarian = system: NCI/ADR-RES ovarian
MDA-MB-468 breast = system: MDA-MB-468 breast
K-562 leukemia = system: K-562 leukemia
NCI-H23 lung = system: NCI-H23 lung
NCI-H460 lung = system: NCI-H460 lung
EKVX NSCLC = system: EKVX NSCLC
MCF7 breast = system: MCF7 breast
MDA-MB-435 = system: MDA-MB-435
UACC-257 melanoma = system: UACC-257 melanoma
SF-295 CNS = system: SF-295 CNS
RPMI-8226 leukemia = system: RPMI-8226 leukemia

Cc1ccc(-c2nc(Nc3ccccc3C(=O)O)c3ccccc3n2)cc1
GI50 (U251 CNS): 5.58 µM
TGI (U251 CNS): 35 µM
GI50 (HS 578T breast): 10.2 µM
TGI (HS 578T breast): 67 µM
GI50 (CCRF-CEM leukemia): 5.72 µM
TGI (CCRF-CEM leukemia): > 100 µM
GI50 (IGROV1 ovarian): 19.1 µM
TGI (IGROV1 ovarian): 87.1 µM
GI50 (UO-31 renal): 7.33 µM
TGI (UO-31 renal): 77.9 µM
GI50 (SW-620 colon): 18.2 µM
TGI (SW-620 colon): > 100 µM
GI50 (HCT-116 colon): 10.1 µM
TGI (HCT-116 colon): 36.1 µM
GI50 (T-47D breast): 6.29 µM
TGI (T-47D breast): 70 µM
GI50 (DU-145 prostate): 17.7 µM
TGI (DU-145 prostate): > 100 µM
GI50 (SN12C renal): 11 µM
TGI (SN12C renal): 60.4 µM
GI50 (RXF 393 renal): 13.1 µM
TGI (RXF 393 renal): 65.9 µM
GI50 (SNB-75 CNS): 1.36 µM
TGI (SNB-75 CNS): 80.3 µM
GI50 (SF-268 CNS): 14.3 µM
TGI (SF-268 CNS): > 100 µM
GI50 (HT29 colon): 17.9 µM
TGI (HT29 colon): > 100 µM
GI50 (SK-MEL-5 melanoma): 5.32 µM
TGI (SK-MEL-5 melanoma): 20.3 µM
GI50 (CAKI-1 renal): 13.8 µM
TGI (CAKI-1 renal): > 100 µM
GI50 (OVCAR-5 ovarian): 21.8 µM
TGI (OVCAR-5 ovarian): 68.9 µM
GI50 (786-0 renal): 17.1 µM
TGI (786-0 renal): > 100 µM
GI50 (ACHN renal): 6.44 µM
TGI (ACHN renal): 91.1 µM
GI50 (LOX IMVI melanoma): 10.2 µM
TGI (LOX IMVI melanoma): 31.6 µM
GI50 (OVCAR-4 ovarian): 8.77 µM
TGI (OVCAR-4 ovarian): > 100 µM
GI50 (OVCAR-3 ovarian): 13.1 µM
TGI (OVCAR-3 ovarian): 51.3 µM
GI50 (KM12 colon): 13.7 µM
TGI (KM12 colon): 81.2 µM
GI50 (A498 renal): 19.9 µM
TGI (A498 renal): 58.1 µM
GI50 (HOP-92 NSCLC): 2.85 µM
TGI (HOP-92 NSCLC): 29.3 µM
GI50 (MOLT-4 leukemia): 11.7 µM
TGI (MOLT-4 leukemia): > 100 µM
GI50 (MDA-MB-231 breast): 17.2 µM
TGI (MDA-MB-231 breast): 59.7 µM
GI50 (PC-3 prostate): 12.7 µM
TGI (PC-3 prostate): > 100 µM
GI50 (SF-539 CNS): 11.9 µM
TGI (SF-539 CNS): 28.3 µM
GI50 (OVCAR-8 ovarian): 18.2 µM
TGI (OVCAR-8 ovarian): > 100 µM
GI50 (SNB-19 CNS): 8.09 µM
TGI (SNB-19 CNS): 81.7 µM
GI50 (BT-549 breast): 14.6 µM
TGI (BT-549 breast): 33.8 µM
GI50 (TK-10 renal): 29.2 µM
TGI (TK-10 renal): > 100 µM
GI50 (HL-60(TB) leukemia): 12.9 µM
TGI (HL-60(TB) leukemia): 75.4 µM
GI50 (SK-MEL-2 melanoma): 3.65 µM
TGI (SK-MEL-2 melanoma): 15.6 µM
GI50 (SK-OV-3 ovarian): 11.9 µM
TGI (SK-OV-3 ovarian): 55.3 µM
GI50 (SK-MEL-28 melanoma): 15.9 µM
TGI (SK-MEL-28 melanoma): 97.4 µM
GI50 (HOP-62 NSCLC): 10.8 µM
TGI (HOP-62 NSCLC): 33.7 µM
GI50 (UACC-62 melanoma): 10.2 µM
TGI (UACC-62 melanoma): 27 µM
GI50 (M14 melanoma): 15.5 µM
TGI (M14 melanoma): 77.4 µM
GI50 (A549 NSCLC): 8.31 µM
TGI (A549 NSCLC): > 100 µM
GI50 (NCI-H226 lung): 10.2 µM
TGI (NCI-H226 lung): 54.2 µM
GI50 (HCT-15 colon): 5.83 µM
TGI (HCT-15 colon): 28.7 µM
GI50 (SR leukemia): 10.3 µM
TGI (SR leukemia): > 100 µM
GI50 (NCI-H522 lung): 4.35 µM
TGI (NCI-H522 lung): 27.1 µM
GI50 (MALME-3M melanoma): 15.6 µM
TGI (MALME-3M melanoma): 64.5 µM
GI50 (HCC-2998 colon): 12.4 µM
TGI (HCC-2998 colon): 36 µM
GI50 (COLO 205 colon): 17.8 µM
TGI (COLO 205 colon): 41 µM
GI50 (NCI/ADR-RES ovarian): 16.8 µM
TGI (NCI/ADR-RES ovarian): 98.5 µM
GI50 (MDA-MB-468 breast): 8.29 µM
TGI (MDA-MB-468 breast): 42.3 µM
GI50 (K-562 leukemia): 7.05 µM
TGI (K-562 leukemia): > 100 µM
GI50 (NCI-H23 lung): 15.7 µM
TGI (NCI-H23 lung): 44.4 µM
GI50 (NCI-H460 lung): 8.52 µM
TGI (NCI-H460 lung): 27.7 µM
GI50 (EKVX NSCLC): 8.89 µM
TGI (EKVX NSCLC): 56.2 µM
GI50 (MCF7 breast): 9.41 µM
TGI (MCF7 breast): 89.9 µM
GI50 (MDA-MB-435): 13.9 µM
TGI (MDA-MB-435): 87.2 µM
GI50 (UACC-257 melanoma): 15.3 µM
TGI (UACC-257 melanoma): 90.3 µM
GI50 (SF-295 CNS): 7.04 µM
TGI (SF-295 CNS): 27 µM
GI50 (RPMI-8226 leukemia): 4.44 µM
TGI (RPMI-8226 leukemia): > 100 µM

— PubChem BioAssay (NCI)
